{"source": "ChEMBL document CHEMBL1208702", "about": "“Use of 2-[(18)F]fluoroethylazide for the Staudinger ligation - Preparation and characterisation of GABA(A) receptor binding 4-quinolones” (Bioorg Med Chem Lett, 2010)", "key": {"Kidney [1]": {"test_system": "Kidney", "assay": "Biodistribution in iv dosed Sprague-Dawley rats kidneys after 0.5 min by gamma counter", "format": "ADME, organism-based", "details": "rat, in vivo"}, "[2]": {"assay": "Biodistribution in iv dosed Sprague-Dawley rats fat after 2 mins by gamma counter", "format": "ADME, organism-based, Adipose tissue", "details": "rat, in vivo"}, "Spleen [3]": {"test_system": "Spleen", "assay": "Biodistribution in iv dosed Sprague-Dawley rats spleen after 2 mins by gamma counter", "format": "ADME, organism-based", "details": "rat, in vivo"}, "Bone [4]": {"test_system": "Bone", "assay": "Biodistribution in iv dosed Sprague-Dawley rats bone after 0.5 min by gamma counter", "format": "ADME, organism-based, Bone element", "details": "rat, in vivo"}, "[5]": {"assay": "Biodistribution in iv dosed Sprague-Dawley rats bladder and urine after 60 mins by gamma counter", "format": "ADME, organism-based", "details": "rat, in vivo, 1 h"}, "[6]": {"assay": "Drug uptake in high GABAA expression areas of Wistar rat brain thalamus/striatum cortex at 0.1 MBq/ml after 60 mins by autoradiographic analysis", "format": "ADME, tissue-based", "details": "in vivo, 1 h"}, "Kidney [7]": {"test_system": "Kidney", "assay": "Biodistribution in iv dosed Sprague-Dawley rats kidneys after 2 mins by gamma counter", "format": "ADME, organism-based", "details": "rat, in vivo"}, "[8]": {"assay": "Biodistribution in iv dosed Sprague-Dawley rats fat after 10 mins by gamma counter", "format": "ADME, organism-based, Adipose tissue", "details": "rat, in vivo"}, "Heart [9]": {"test_system": "Heart", "assay": "Biodistribution in iv dosed Sprague-Dawley rats heart after 2 mins by gamma counter", "format": "ADME, organism-based", "details": "rat, in vivo"}, "Brain [10]": {"test_system": "Brain", "assay": "Biodistribution in iv dosed Sprague-Dawley rats brain after 60 mins by gamma counter", "format": "ADME, organism-based", "details": "rat, in vivo, 1 h"}, "[11]": {"assay": "Biodistribution in iv dosed Sprague-Dawley rats large intestine after 0.5 min by gamma counter", "format": "ADME, organism-based", "details": "rat, in vivo"}, "Bone [12]": {"test_system": "Bone", "assay": "Biodistribution in iv dosed Sprague-Dawley rats bone after 10 mins by gamma counter", "format": "ADME, organism-based, Bone element", "details": "rat, in vivo"}, "[13]": {"assay": "Biodistribution in iv dosed Sprague-Dawley rats stomach after 2 mins by gamma counter", "format": "ADME, organism-based", "details": "rat, in vivo"}, "[14]": {"assay": "Biodistribution in iv dosed Sprague-Dawley rats small intestine after 10 mins by gamma counter", "format": "ADME, organism-based", "details": "rat, in vivo"}, "Muscle tissue [15]": {"test_system": "Muscle tissue", "assay": "Biodistribution in iv dosed Sprague-Dawley rats muscle after 30 mins by gamma counter", "format": "ADME, organism-based", "details": "rat, in vivo, 0.5 h"}, "Liver [16]": {"test_system": "Liver", "assay": "Biodistribution in iv dosed Sprague-Dawley rats liver after 30 mins by gamma counter", "format": "ADME, organism-based", "details": "rat, in vivo, 0.5 h"}, "[17]": {"assay": "Biodistribution in iv dosed Sprague-Dawley rats small intestine after 60 mins by gamma counter", "format": "ADME, organism-based", "details": "rat, in vivo, 1 h"}, "[18]": {"assay": "Biodistribution in iv dosed Sprague-Dawley rats stomach after 0.5 min by gamma counter", "format": "ADME, organism-based", "details": "rat, in vivo"}, "[19]": {"assay": "Biodistribution in iv dosed Sprague-Dawley rats small intestine after 30 mins by gamma counter", "format": "ADME, organism-based", "details": "rat, in vivo, 0.5 h"}, "Muscle tissue [20]": {"test_system": "Muscle tissue", "assay": "Biodistribution in iv dosed Sprague-Dawley rats muscle after 2 mins by gamma counter", "format": "ADME, organism-based", "details": "rat, in vivo"}, "Blood [21]": {"test_system": "Blood", "assay": "Biodistribution in iv dosed Sprague-Dawley rats blood after 10 mins by gamma counter", "format": "ADME, organism-based", "details": "rat, in vivo"}, "Blood [22]": {"test_system": "Blood", "assay": "Biodistribution in iv dosed Sprague-Dawley rats blood after 30 mins by gamma counter", "format": "ADME, organism-based", "details": "rat, in vivo, 0.5 h"}, "[23]": {"assay": "Biodistribution in iv dosed Sprague-Dawley rats small intestine after 2 mins by gamma counter", "format": "ADME, organism-based", "details": "rat, in vivo"}, "Blood [24]": {"test_system": "Blood", "assay": "Biodistribution in iv dosed Sprague-Dawley rats blood after 0.5 min by gamma counter", "format": "ADME, organism-based", "details": "rat, in vivo"}, "Liver [25]": {"test_system": "Liver", "assay": "Biodistribution in iv dosed Sprague-Dawley rats liver after 10 mins by gamma counter", "format": "ADME, organism-based", "details": "rat, in vivo"}, "[26]": {"assay": "Biodistribution in iv dosed Sprague-Dawley rats large intestine after 2 mins by gamma counter", "format": "ADME, organism-based", "details": "rat, in vivo"}, "Spleen [27]": {"test_system": "Spleen", "assay": "Biodistribution in iv dosed Sprague-Dawley rats spleen after 10 mins by gamma counter", "format": "ADME, organism-based", "details": "rat, in vivo"}, "Heart [28]": {"test_system": "Heart", "assay": "Biodistribution in iv dosed Sprague-Dawley rats heart after 10 mins by gamma counter", "format": "ADME, organism-based", "details": "rat, in vivo"}, "Spleen [29]": {"test_system": "Spleen", "assay": "Biodistribution in iv dosed Sprague-Dawley rats spleen after 60 mins by gamma counter", "format": "ADME, organism-based", "details": "rat, in vivo, 1 h"}, "Kidney [30]": {"test_system": "Kidney", "assay": "Biodistribution in iv dosed Sprague-Dawley rats kidneys after 30 mins by gamma counter", "format": "ADME, organism-based", "details": "rat, in vivo, 0.5 h"}, "Liver [31]": {"test_system": "Liver", "assay": "Biodistribution in iv dosed Sprague-Dawley rats liver after 2 mins by gamma counter", "format": "ADME, organism-based", "details": "rat, in vivo"}, "Brain [32]": {"test_system": "Brain", "assay": "Biodistribution in iv dosed Sprague-Dawley rats brain after 30 mins by gamma counter", "format": "ADME, organism-based", "details": "rat, in vivo, 0.5 h"}, "Lung [33]": {"test_system": "Lung", "assay": "Biodistribution in iv dosed Sprague-Dawley rats lung after 30 mins by gamma counter", "format": "ADME, organism-based", "details": "rat, in vivo, 0.5 h"}, "[34]": {"assay": "Biodistribution in iv dosed Sprague-Dawley rats stomach after 60 mins by gamma counter", "format": "ADME, organism-based", "details": "rat, in vivo, 1 h"}, "Lung [35]": {"test_system": "Lung", "assay": "Biodistribution in iv dosed Sprague-Dawley rats lung after 60 mins by gamma counter", "format": "ADME, organism-based", "details": "rat, in vivo, 1 h"}, "Brain [36]": {"test_system": "Brain", "assay": "Biodistribution in iv dosed Sprague-Dawley rats brain after 2 mins by gamma counter", "format": "ADME, organism-based", "details": "rat, in vivo"}, "Heart [37]": {"test_system": "Heart", "assay": "Biodistribution in iv dosed Sprague-Dawley rats heart after 60 mins by gamma counter", "format": "ADME, organism-based", "details": "rat, in vivo, 1 h"}, "[38]": {"assay": "Biodistribution in iv dosed Sprague-Dawley rats large intestine after 10 mins by gamma counter", "format": "ADME, organism-based", "details": "rat, in vivo"}}}
{"smiles": "O=C(NCC[18F])c1c[nH]c2ccc(Cc3ccccc3)cc2c1=O", "values": [{"measurement": "Drug uptake", "setting": "Kidney [1]", "result": 4, "unit": "%ID"}, {"measurement": "Drug uptake", "setting": "[2]", "result": 1.8, "unit": "%ID"}, {"measurement": "Drug uptake", "setting": "Spleen [3]", "result": 0.3, "unit": "%ID"}, {"measurement": "Drug uptake", "setting": "Bone [4]", "result": 3, "unit": "%ID"}, {"measurement": "Drug uptake", "setting": "[5]", "result": 7.3, "unit": "%ID"}, {"measurement": "Drug uptake", "setting": "[6]", "result": 76, "unit": "%"}, {"measurement": "Drug uptake", "setting": "Kidney [7]", "result": 3.6, "unit": "%ID"}, {"measurement": "Drug uptake", "setting": "[8]", "result": 1.8, "unit": "%ID"}, {"measurement": "Drug uptake", "setting": "Heart [9]", "result": 1.1, "unit": "%ID"}, {"measurement": "Drug uptake", "setting": "Brain [10]", "result": 0, "unit": "%ID"}, {"measurement": "Drug uptake", "setting": "[11]", "result": 0.9, "unit": "%ID"}, {"measurement": "Drug uptake", "setting": "Bone [12]", "result": 1.7, "unit": "%ID"}, {"measurement": "Drug uptake", "setting": "[13]", "result": 1.2, "unit": "%ID"}, {"measurement": "Drug uptake", "setting": "[14]", "result": 24.5, "unit": "%ID"}, {"measurement": "Drug uptake", "setting": "Muscle tissue [15]", "result": 16.5, "unit": "%ID"}, {"measurement": "Drug uptake", "setting": "Liver [16]", "result": 18.7, "unit": "%ID"}, {"measurement": "Drug uptake", "setting": "[17]", "result": 74.5, "unit": "%ID"}, {"measurement": "Drug uptake", "setting": "[18]", "result": 0.8, "unit": "%ID"}, {"measurement": "Drug uptake", "setting": "[19]", "result": 50.3, "unit": "%ID"}, {"measurement": "Drug uptake", "setting": "Muscle tissue [20]", "result": 47.3, "unit": "%ID"}, {"measurement": "Drug uptake", "setting": "Blood [21]", "result": 2.8, "unit": "%ID"}, {"measurement": "Drug uptake", "setting": "Blood [22]", "result": 1.5, "unit": "%ID"}, {"measurement": "Drug uptake", "setting": "[23]", "result": 7, "unit": "%ID"}, {"measurement": "Drug uptake", "setting": "Blood [24]", "result": 8.7, "unit": "%ID"}, {"measurement": "Drug uptake", "setting": "Liver [25]", "result": 33.7, "unit": "%ID"}, {"measurement": "Drug uptake", "setting": "[26]", "result": 1.3, "unit": "%ID"}, {"measurement": "Drug uptake", "setting": "Spleen [27]", "result": 0.2, "unit": "%ID"}, {"measurement": "Drug uptake", "setting": "Heart [28]", "result": 0.3, "unit": "%ID"}, {"measurement": "Drug uptake", "setting": "Spleen [29]", "result": 0, "unit": "%ID"}, {"measurement": "Drug uptake", "setting": "Kidney [30]", "result": 1.5, "unit": "%ID"}, {"measurement": "Drug uptake", "setting": "Liver [31]", "result": 28.5, "unit": "%ID"}, {"measurement": "Drug uptake", "setting": "Brain [32]", "result": 0.1, "unit": "%ID"}, {"measurement": "Drug uptake", "setting": "Lung [33]", "result": 0.4, "unit": "%ID"}, {"measurement": "Drug uptake", "setting": "[34]", "result": 0.2, "unit": "%ID"}, {"measurement": "Drug uptake", "setting": "Lung [35]", "result": 0.1, "unit": "%ID"}, {"measurement": "Drug uptake", "setting": "Brain [36]", "result": 0.1, "unit": "%ID"}, {"measurement": "Drug uptake", "setting": "Heart [37]", "result": 0.1, "unit": "%ID"}, {"measurement": "Drug uptake", "setting": "[38]", "result": 1.7, "unit": "%ID"}]}
